Laboratory results published in patent US12692478B2, “Populations of enriched regulatory T cells and methods for producing same” (Cellenkos Inc., priority 2021, dated 2026).

Assays:
SLE-PBMC = assay: IFN-gamma release by pathogenic lupus cells (SLE-PBMC); format: cell-based, human; conditions: control, non-specific inflammatory stimulus
Description: FIG. 32 is a bar graph depicting the amount of interferon (IFN)—gamma released by pathogenic lupus cells in the presence or absence of combinations of (1) activated Treg cells; (2) ruxolitinib; and/or (3) camptothecin. Rux=ruxolitinib. SLE-PBMC=peripheral blood mononuclear cells derived from subjects with systemic lupus erythematosus. D6=Day 6.

[1] = tested on: graft versus host disease (GVHD); conditions: mouse, in vivo
Method: FIG. 33 depicts a schematic for treatment of a xenogeneic mouse graft versus host disease (GVHD) model with a ruxolitinib and activated Treg cells regimen. PBMC=peripheral blood mononuclear cells.
A xenogeneic mouse graft versus host disease (GVHD) model was treated with a ruxolitinib and activated CB Treg cells regimen, as depicted in FIG. 33. NSG mice underwent sublethal irradiation on day −1 followed by injection of 1×10^7 donor peripheral blood (PB) mononuclear cells (MNCs) on day 0. Oral ruxolitinib at 1 mg daily was fed continuously to the mice in the presence or absence of 1×10^7 CB Treg cells, tagged with CellTrace™ Violet dye (ThermoFisher), administered on days +4, +7, +11, +18. Mice were followed every other day for weight, GVHD score and survival. Serial blood draws were performed to analyze for cell compartment and cytokine assays.

Row | SMILES | IFNγ secretion from CB Treg cells (SLE-PBMC) | CB Treg persistence [1]
1 | CC[C@@]1(O)C(=O)OCc2c1cc1n(c2=O)Cc2cc3ccccc3nc2-1 [Camptothecin] | does not increase | 
2 | N#CC[C@H](C1CCCC1)n1cc(-c2ncnc3[nH]ccc23)cn1 [ruxolitinib] |  | improved CB Treg persistence
